Results reported in patent publication US10202372B2, “Trisubstituted pyrido[2,3-D]pyrimidines, methods for preparing same and therapeutic uses thereof” (CENTRE NATIONAL DE LA RECHERCHE SCIENTIFIQUE (C.N.R.S), priority 2012, dated 2019).

Legend:
[1] = target: PI3Kδ (Homo sapiens, UniProt O00329); assay: PI3Kδ kinase activity, Adapta TR-FRET ADP detection; assay type: biochemical; settings: purified p110δ/p85α heterodimer; read-out: Kinases IC50 PI3Kδ
Method: (§1) The activity of the PI3Kα kinase was evaluated by using a purified heterodimer (reference: PV4788 from Invitrogen) consisting of the α catalytic p110 subunit (PIK3CA) and the α regulation p85 subunit (PIK3R1). The assay of the kinase with the kit Adapta™ (reference: PV5099 from Invitrogen) is an enzymatic test based on the detection of ADP, produced during the reaction, by the fluorescence technique TR-FRET. It took place in a 384-well plate and was able to be divided into two phases: an enzymatic reaction phase, and a phase for detecting the ADP level.
(§2) During the enzymatic reaction phase, the following components were mixed in 10 μL of a same well: 2.5 μL of each dilution in series of inhibitors taken up in DMSO and then diluted to 1/25 in the reaction buffer (250 mM HEPES pH 7.5, 500 mM NaCl, 0.15 CHAPS, 5 mM EGTA, 15 mM MgCl2 and 1 mM DTT, ref.: PV5101 from Invitrogen), 2.5 μL of a solution containing PI3K at the optimum concentration (concentration defined according to the optimization step described in the operating procedure of the kit) diluted in the same reaction buffer, and finally, 5 μL of a solution containing 20 μM ATP and 100 μM PIP2 diluted in the reaction buffer. For each inhibitor concentration, the reaction was conducted in three copies (triplicate). The reaction was then incubated for 60 min at room temperature without any stirring in darkness.
(§3) During the phase for detecting ADP, 5 μL of a detection solution containing an anti-ADP antibody labeled with europium (6 nM), a tracer of the Alexa Fluor® 647 type coupled with ADP (30 nM), and EDTA (30 mM, for stopping the kinase reaction) were diluted in the dilution buffer (reference: PV3574 from Invitrogen). After 30 min of incubation at room temperature with stirring (40 rpm) in darkness, the 384-well plates were read in a plate reader Victor V configured for HTRF (Perkin Elmer). The excitation was produced at 340 nm and emission was measured at 665 nm and 615 nm. The inhibition curve was then plotted according to the emission ratio at 665 nm/615 nm versus the inhibitor concentration.
(§4) In order to obtain a linear response of the signal, a titration curve ATP-ADP, corresponding to the conversion % of ATP into ADP, was achieved by varying both of these species while keeping [ADP]+[ATP]=10 μM. The emission ratio at 665 nm/615 nm resulting from this (Y) was plotted versus the conversion % of ATP into ADP (X). The data of this curve were formatted according to a model with three hyperbolic parameters from the following equation: Y=C+A*(1−(X/(B+X))).
(§5) The software package GraphPad™ Prism® thus allows calculation of the parameters A, B and C. A conversion % corresponds to an emission ratio 665 nm/615 nm, this percentage is calculated by using the following equation: Conversion %=B*(C+A−Ratio)/(Ratio−C)
(§6) The three parameters A, B and C having been defined by the preceding equation, the conversion % was therefore able to be plotted versus the inhibitor concentration. The amount of inhibitor required for causing a 50% variation in the % conversion of ATP into ADP corresponds to the IC50 value of the inhibitor.
(§7) The activity of the kinase PI3Kγγ (PV4786 from Invitrogen) was evaluated on the p110γγ catalytic subunit (PI3KCG) and that of the kinase PI3Kδδ on the purified heterodimer (PV5273) respectively consisting of the δδ catalytic p110 subunit (PIK3CD) and the α regulation p85 subunit (PIK3R1) by following the same procedure.

[2] = target: PI3Kγ (Homo sapiens, UniProt P48736); assay: PI3Kγ kinase activity, Adapta TR-FRET ADP detection; assay type: biochemical; settings: p110γ catalytic subunit; read-out: Kinases IC50 PI3Kγ
Method: as §1, §2, §3, §4, §5, §6, §7

[3] = target: mTOR (Homo sapiens, UniProt P42345); assay: mTOR kinase activity, LANCE Ultra TR-FRET; assay type: biochemical; settings: truncated mTOR protein, triplicate; read-out: Kinases IC50 mTOR
Method: The activity of the mTOR kinase was evaluated by using a purified truncated protein of the amino acids 1-1359 (reference: PV4753 from Invitrogen). The assay of the activity of the enzyme was carried out with the kit LANCE® Ultra which is an enzymatic test based on the detection of a phosphorylated peptide produced during the reaction, by using the fluorescence technique TR-FRET. It took place in a 384-well plate and was able to be divided into two phases: an enzymatic reaction phase and a phase for detecting the phosphorylated peptide.
During the enzymatic reaction phase, the following components were mixed in 10 μL of a same well: 5 μL of each dilution in series of inhibitors taken up in DMSO and then diluted to 1/25 in the reaction buffer (50 mM HEPES pH 7.5, 0.1% Tween-20, 1 mM EGTA, 10 mM MnCl2, 3 mM MgCl2 and 2 mM of DTT), 2.5 μL of a solution containing mTOR at the optimum concentration (concentration defined according to the optimization step described in the operating procedure of the kit) diluted in the same reaction buffer, and finally 2.5 μL of a solution containing 40 μM of ATP and 200 μM non-phosphorylated peptide diluted in the reaction buffer. For each inhibitor concentration, the reaction was conducted in three copies (triplicate). The reaction was then incubated for 120 min at room temperature without any stirring in darkness.
During the phase for detecting the phosphorylated peptide, 5 μL of an EDTA solution (32 mM) diluted in the dilution buffer (ref.: CR97-100 from Perkin Elmer) were injected into each well. After 5 min of incubation with stirring, 5 μL of a phosphorylated anti-peptide antibody solution labeled with europium (8 nM) and diluted in the same dilution buffer was added into each well. After 60 min of incubation at room temperature with stirring (40 rpm) in darkness, the 384-well plates were read in a plate reader Victor V configured for HTRF (Perkin Elmer). […] The inhibition curve was then plotted according to the fluorescence intensity value at 665 nm versus the inhibitor concentration.
The amount of inhibitor required for causing a 50% variation in the intensity of the signal corresponds to the IC50 value of the inhibitor.

[4] = target: PI3Kα (Homo sapiens, UniProt P42336); assay: PI3Kα kinase activity, Adapta TR-FRET ADP detection; assay type: biochemical; settings: purified p110α/p85α heterodimer, triplicate; read-out: Kinases IC50 PI3Kα
Method: as §1, §2, §3, §4, §5, §6

[5] = system: MDA; assay: Toxicity test on cells, MDA; assay type: cell-based; settings: 48 hours of treatment, Hoechst nuclei staining
Method: [The procedure below names another cell line; the source lists this cell line under the same test.] (§8) The compounds according to the invention were also tested on the cell lines HuH7, CaCo-2, HCT116, PC3, NCl, HacaT and Fibroblasts.
(§9) Operating Procedure: The cells were cultivated according to the ECACC recommendations. The toxicity test of the compounds on these cells was conducted as follows: 4×10^3 cells/well were sown in 96 wells. 24 hours after sowing the cells, the cells were exposed to increased concentrations of the compounds (0.1 μM-0.3 μM-0.9 μM-2.7 μM-8.3 μM-25 μM). After 48 hours of treatment, the cells were washed in PBS and bound in a cold ethanol/acetic acid (90/5) mixture for 20 minutes. Next, the nuclei were coloured with […] (Sigma). The acquisition of images and the analysis was carried out by means of a reader Cellomics ArrayScan VTI/HCS (Thermo Scientific).

[6] = system: HUH7; assay: Toxicity test on cells, HUH7; assay type: cell-based; settings: Homo sapiens, Huh-7; 48 hours of treatment, Hoechst nuclei staining
Method: as §8, §9

[7] = system: Fibroblasts; assay: Toxicity test on cells, Fibroblasts; assay type: cell-based; settings: Fibroblast; 48 hours of treatment, Hoechst nuclei staining
Method: as §8, §9

[8] = system: CaCo2; assay: Toxicity test on cells, CaCo2; assay type: cell-based; settings: Homo sapiens, Caco-2; 48 hours of treatment, Hoechst nuclei staining
Method: as §8, §9

[9] = system: HCT116; assay: Toxicity test on cells, HCT116; assay type: cell-based; settings: Homo sapiens, HCT-116; 48 hours of treatment, Hoechst nuclei staining
Method: as §8, §9

[10] = system: PC3; assay: Toxicity test on cells, PC3; assay type: cell-based; settings: Homo sapiens, PC-3; 48 hours of treatment, Hoechst nuclei staining
Method: as §8, §9

[11] = system: NCl; assay: Toxicity test on cells, NCl; assay type: cell-based; settings: 48 hours of treatment, Hoechst nuclei staining
Method: as §8, §9

[12] = system: HacaT; assay: Toxicity test on cells, HacaT; assay type: cell-based; settings: Homo sapiens, 48 hours of treatment, Hoechst nuclei staining
Method: as §8, §9

Sequence of PI3Kγ (P48736 whole entry): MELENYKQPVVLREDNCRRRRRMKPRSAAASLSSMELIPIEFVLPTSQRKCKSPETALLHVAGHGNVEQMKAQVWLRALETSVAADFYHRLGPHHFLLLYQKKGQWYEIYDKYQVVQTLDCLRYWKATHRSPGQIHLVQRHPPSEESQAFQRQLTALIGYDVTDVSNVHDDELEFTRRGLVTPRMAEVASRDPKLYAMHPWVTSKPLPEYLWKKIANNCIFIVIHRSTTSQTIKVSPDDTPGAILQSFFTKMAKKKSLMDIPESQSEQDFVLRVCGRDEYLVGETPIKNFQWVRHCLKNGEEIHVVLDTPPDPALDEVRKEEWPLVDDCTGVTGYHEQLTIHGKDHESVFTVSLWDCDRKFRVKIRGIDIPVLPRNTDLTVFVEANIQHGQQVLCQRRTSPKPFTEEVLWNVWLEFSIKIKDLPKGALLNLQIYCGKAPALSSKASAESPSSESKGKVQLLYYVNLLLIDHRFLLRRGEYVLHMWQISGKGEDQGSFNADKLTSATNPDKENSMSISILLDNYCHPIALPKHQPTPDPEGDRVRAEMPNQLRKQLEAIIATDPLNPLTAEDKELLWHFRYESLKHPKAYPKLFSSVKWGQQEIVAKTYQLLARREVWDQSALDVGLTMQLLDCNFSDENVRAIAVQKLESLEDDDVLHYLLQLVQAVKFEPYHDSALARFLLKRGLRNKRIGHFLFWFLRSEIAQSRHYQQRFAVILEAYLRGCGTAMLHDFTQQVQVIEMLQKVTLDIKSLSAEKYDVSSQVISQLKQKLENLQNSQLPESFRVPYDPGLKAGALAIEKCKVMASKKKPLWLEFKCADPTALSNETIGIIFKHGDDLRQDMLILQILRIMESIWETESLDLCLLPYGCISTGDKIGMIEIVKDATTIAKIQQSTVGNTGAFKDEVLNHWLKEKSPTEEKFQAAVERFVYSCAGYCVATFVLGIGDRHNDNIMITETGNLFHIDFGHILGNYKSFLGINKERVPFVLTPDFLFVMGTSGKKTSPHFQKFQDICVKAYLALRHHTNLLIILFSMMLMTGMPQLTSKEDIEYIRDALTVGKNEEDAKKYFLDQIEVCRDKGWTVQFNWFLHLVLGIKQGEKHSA
Sequence of PI3Kα (P42336 whole entry): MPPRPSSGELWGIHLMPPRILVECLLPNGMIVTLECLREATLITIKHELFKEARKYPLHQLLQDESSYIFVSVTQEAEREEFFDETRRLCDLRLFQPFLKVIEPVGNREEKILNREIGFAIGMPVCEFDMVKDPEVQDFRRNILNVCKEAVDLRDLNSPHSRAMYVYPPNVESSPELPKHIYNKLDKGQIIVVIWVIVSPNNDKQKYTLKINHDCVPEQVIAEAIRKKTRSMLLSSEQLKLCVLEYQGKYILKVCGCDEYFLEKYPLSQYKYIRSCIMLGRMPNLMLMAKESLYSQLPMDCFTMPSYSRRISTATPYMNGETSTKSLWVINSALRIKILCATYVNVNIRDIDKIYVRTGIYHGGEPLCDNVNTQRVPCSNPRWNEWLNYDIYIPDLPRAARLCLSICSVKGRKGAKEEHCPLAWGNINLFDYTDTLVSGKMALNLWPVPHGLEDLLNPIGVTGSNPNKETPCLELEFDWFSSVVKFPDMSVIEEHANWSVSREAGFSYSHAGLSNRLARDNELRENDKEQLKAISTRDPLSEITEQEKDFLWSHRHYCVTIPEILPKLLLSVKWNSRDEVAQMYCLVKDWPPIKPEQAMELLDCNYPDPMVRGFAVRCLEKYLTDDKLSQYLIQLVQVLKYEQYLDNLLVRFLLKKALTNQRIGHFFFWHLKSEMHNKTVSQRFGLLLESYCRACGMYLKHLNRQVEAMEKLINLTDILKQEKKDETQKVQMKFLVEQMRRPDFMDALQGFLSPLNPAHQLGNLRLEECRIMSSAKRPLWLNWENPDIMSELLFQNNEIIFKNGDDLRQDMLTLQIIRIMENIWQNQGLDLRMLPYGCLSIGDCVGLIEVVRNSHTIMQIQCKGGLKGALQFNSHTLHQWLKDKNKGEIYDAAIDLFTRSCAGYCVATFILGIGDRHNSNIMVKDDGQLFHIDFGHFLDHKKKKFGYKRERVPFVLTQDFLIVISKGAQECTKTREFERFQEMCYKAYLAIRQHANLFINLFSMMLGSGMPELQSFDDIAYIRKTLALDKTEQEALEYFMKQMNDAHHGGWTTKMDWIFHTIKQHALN
Sequence of PI3Kα (P27986 whole entry partner): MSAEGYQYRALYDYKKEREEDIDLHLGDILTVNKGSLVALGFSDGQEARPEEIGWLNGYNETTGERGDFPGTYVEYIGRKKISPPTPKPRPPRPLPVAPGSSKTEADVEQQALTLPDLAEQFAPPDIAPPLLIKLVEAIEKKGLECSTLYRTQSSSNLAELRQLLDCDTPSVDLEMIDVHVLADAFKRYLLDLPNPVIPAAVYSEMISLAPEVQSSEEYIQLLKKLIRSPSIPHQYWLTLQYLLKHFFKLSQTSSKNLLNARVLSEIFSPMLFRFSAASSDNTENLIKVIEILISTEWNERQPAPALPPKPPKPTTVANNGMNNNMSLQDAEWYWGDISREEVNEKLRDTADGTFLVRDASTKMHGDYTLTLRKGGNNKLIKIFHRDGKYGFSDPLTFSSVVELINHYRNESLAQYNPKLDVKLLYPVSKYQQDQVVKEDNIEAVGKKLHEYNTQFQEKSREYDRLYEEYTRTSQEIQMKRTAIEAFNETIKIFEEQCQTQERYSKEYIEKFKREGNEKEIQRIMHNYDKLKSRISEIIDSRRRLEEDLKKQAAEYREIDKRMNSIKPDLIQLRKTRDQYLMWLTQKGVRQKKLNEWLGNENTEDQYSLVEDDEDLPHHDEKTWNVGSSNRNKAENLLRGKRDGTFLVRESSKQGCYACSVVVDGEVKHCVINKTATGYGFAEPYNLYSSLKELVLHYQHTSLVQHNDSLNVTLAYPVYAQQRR
Sequence of PI3Kδ (O00329 whole entry): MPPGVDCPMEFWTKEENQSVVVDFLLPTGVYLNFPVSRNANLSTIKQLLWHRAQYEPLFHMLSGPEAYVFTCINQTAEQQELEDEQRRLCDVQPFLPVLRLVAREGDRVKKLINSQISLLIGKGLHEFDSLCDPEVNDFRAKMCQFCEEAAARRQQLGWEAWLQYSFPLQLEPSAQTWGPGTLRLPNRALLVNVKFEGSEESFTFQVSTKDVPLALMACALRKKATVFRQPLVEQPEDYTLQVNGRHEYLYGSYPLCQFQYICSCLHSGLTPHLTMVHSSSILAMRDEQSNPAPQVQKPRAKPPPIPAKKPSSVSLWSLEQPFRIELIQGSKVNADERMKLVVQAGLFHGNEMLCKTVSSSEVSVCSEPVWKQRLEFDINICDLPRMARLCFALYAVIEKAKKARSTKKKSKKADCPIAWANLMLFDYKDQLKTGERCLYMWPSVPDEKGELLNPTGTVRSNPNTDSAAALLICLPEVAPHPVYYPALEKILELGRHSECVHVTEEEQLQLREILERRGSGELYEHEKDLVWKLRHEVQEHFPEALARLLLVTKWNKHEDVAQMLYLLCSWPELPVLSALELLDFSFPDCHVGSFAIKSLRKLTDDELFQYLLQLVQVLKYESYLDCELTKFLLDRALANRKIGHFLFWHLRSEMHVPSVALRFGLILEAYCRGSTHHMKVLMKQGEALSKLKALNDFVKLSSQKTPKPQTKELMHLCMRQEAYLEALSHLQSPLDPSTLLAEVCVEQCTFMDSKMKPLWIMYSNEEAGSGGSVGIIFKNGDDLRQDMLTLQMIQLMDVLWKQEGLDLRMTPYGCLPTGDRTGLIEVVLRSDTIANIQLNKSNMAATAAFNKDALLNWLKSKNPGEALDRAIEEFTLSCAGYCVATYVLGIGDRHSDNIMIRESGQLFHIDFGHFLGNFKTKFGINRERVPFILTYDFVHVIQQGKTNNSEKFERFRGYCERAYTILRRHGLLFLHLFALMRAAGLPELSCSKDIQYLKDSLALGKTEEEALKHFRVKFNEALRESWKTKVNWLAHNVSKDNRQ
Sequence of PI3Kδ (P27986 whole entry partner): as the sequence (P27986 whole entry partner) above

Compound | IC50 [1] [µM] | IC50 [2] [µM] | IC50 [3] [µM] | IC50 [4] [µM] | IC50 [5] [µM] | IC50 [6] [µM] | IC50 [7] [µM] | IC50 [8] [µM] | IC50 [9] [µM] | IC50 [10] [µM] | IC50 [11] [µM] | IC50 [12] [µM]
N#CCc1cnc2c(N3CCOCC3)nc(-c3cccc(O)c3)nc2c1 [Compound 41, 2-(2-(3-hydroxyphenyl)-4-morpholinopyrido[3,2-d]pyrimidin-7-yl)acetonitrile] | 0.34 | 0.127 | 0.82 | 0.051 |  |  |  |  |  |  |  | 
COCOCc1cn(Cc2cnc3c(N4CCOCC4)nc(-c4cccc(O)c4)nc3c2)nn1 [Compound 59, 3-[7-({4-[(methoxymethoxy)methyl]-1H-1,2,3-triazol-1-yl}methyl)-4-(morpholin-4-yl)pyrido[3,2-d]pyrimidin-2-yl]phenol] |  |  |  | 0.116 |  |  |  |  |  |  |  | 
O=C(O)c1cnc2c(N3CCOCC3)nc(-c3cccc(O)c3)nc2c1 [Compound 42, 2-(3-hydroxyphenyl)-4-morpholinopyrido[3,2-d]pyrimidine-7-carboxylic acid] | 0.063 | 0.399 | 0.135 | 0.01 |  |  |  |  |  |  |  | 
COCc1cn(Cc2cnc3c(N4CCOCC4)nc(-c4ccc(NC(=O)NCC(F)(F)F)cc4)nc3c2)nn1 [Compound 82, 1-[4-(7-{[4-(methoxymethyl)-1H-1,2,3-triazol-1-yl]methyl}-4-(morpholin-4-yl)pyrido[3,2-d]pyrimidin-2-yl)phenyl]-3-(2,2,2-trifluoroethyl)urea] |  |  |  | 0.018 |  |  |  |  |  |  |  | 
OCc1cnc2c(N3CCOCC3)nc(-c3cccc(O)c3)nc2c1 [Compound 34, 3-(7-(hydroxymethyl)-4-morpholinopyrido[3,2-d]pyrimidin-2-yl)phenol] | 0.126 | 0.022 | 0.35 | 0.366 | 25 | 1 | 25 | 1.5 | 3 | 5 | > 25 | 
Oc1cccc(-c2nc(N3CCOCC3)c3ncc(Cn4cc(CF)nn4)cc3n2)c1 [Compound 61, 3-(7-{[4-(fluoromethyl)-1H-1,2,3-triazol-1-yl]methyl}-4-(morpholin-4-yl)pyrido[3,2-d]pyrimidin-2-yl)phenol] |  |  |  | 0.391 |  |  |  |  |  |  |  | 
C=Cc1cnc2c(N3CCOCC3)nc(-c3cccc(O)c3)nc2c1 [Compound 14, 3-(4-morpholino-7-vinylpyrido[3,2-d]pyrimidin-2-yl)phenol] | 0.011 | 0.196 | 0.109 | 0.098 | 20 | 20 | > 25 | 1.5 | 5 | 20 | 20 | 
OCC(O)c1cnc2c(N3CCOCC3)nc(-c3cccc(O)c3)nc2c1 (stereo not drawn) [Compound 22, 1-(2-(3-hydroxyphenyl)-4-morpholinopyrido[3,2-d]pyrimidin-7-yl)ethane-1,2-diol] | 0.041 | 0.344 | 0.46 | 0.082 | 10 | > 25 | > 25 | 4 | 5 | 4 | > 25 | 
CS(=O)(=O)N1CCN(Cc2cnc3c(N4CCOCC4)nc(-c4cccc(O)c4)nc3c2)CC1 [Compound 55, 3-{7-[(4-methanesulfonylpiperazin-1-yl)methyl]-4-(morpholin-4-yl)pyrido[3,2-d]pyrimidin-2-yl}phenol] |  |  |  | 0.056 |  |  |  |  |  |  |  | 
CN(C)Cc1cn(Cc2cnc3c(N4CCOCC4)nc(-c4cccc(O)c4)nc3c2)nn1 [Compound 58, 3-[7-({4-[(dimethylamino)methyl]-1H-1,2,3-triazol-1-yl}methyl)-4-(morpholin-4-yl)pyrido[3,2-d]pyrimidin-2-yl]phenol] |  |  |  | 0.038 |  |  |  |  |  |  |  | 
O=CCCc1cnc2c(N3CCOCC3)nc(-c3cccc(O)c3)nc2c1 [Compound 46] | 0.081 | 0.563 | 1.9 | 0.057 |  |  |  |  |  |  |  | 
O=Cc1cnc2c(N3CCOCC3)nc(-c3cccc(O)c3)nc2c1 [Compound 20, 2-(3-hydroxyphenyl)-4-morpholinopyrido[3,2-d]pyrimidine-7-carbaldehyde] | 0.01 | > 50 | 0.071 | 0.047 | 20 | 20 | > 25 | 4 | 6 | 25 | > 25 | 
C=Cc1cnc2c(N3CCOCC3)nc(-c3cccc(CO)c3)nc2c1 [Compound 17, (3-(4-Morpholino-7-vinylpyrido[3,2-d]pyrimidin-2-yl)phenyl)methanol] |  |  |  |  | > 25 | 15 | > 25 | 5 | 6 | 25 | > 25 | 4
